Assay results from US5856350A, “3-phenyl-1,4-dialkyl-1,2,4-triazolium salts and their use as antidepressants” (Hoechst Marion Roussel, Inc., priority 1996, dated 1999).
Read-outs that look alike come from different tables or passages of the source.

Key:
LD50 = conditions: in vivo; Table I; species and route not given
From the text: The results of testing a number of compounds of formula I for the effects summarized above, as well as their LD50, are summarized in Table I.

reserpine-induced ptosis = assay: Prevention of reserpine-induced ptosis in mice; type: in vivo; conditions: Mus musculus, iv, reserpine 2 mg/kg i.v.
Experimental: In this assay, test groups of weighed mice are housed individually in wire mesh cages and administered test compound or vehicle. At a selected time thereafter, reserpine is administered as a 0.2 mg/ml solution in dilute acetic acid at a dose of 2 mg/kg intravenously into a tail vein. In each assay the animals are examined individually in a Plexiglas® cylinder 90 minutes later. Prevention or delay in ptosis is considered significant if the average closure of both eyes is less than 50% after observing for 30 seconds.

[1] = system: Ro 4-1284-induced hypothermia; assay: Antagonism to Ro 4-1284-induced hypothermia; type: in vivo; conditions: male mice, Ro 4-1284 20 mg/kg i.p.; for ED50: Mus musculus, ip
Experimental: Another assay utilized to evaluate antidepressant activity is testing for the antagonism to Ro 4-1284*--induced hypothermia. (*Niemegeers, Carlos, J. E. "Antagonism of Reserpine--Like Activity", edited by S. Fielding and Lal, published by Futura, pg. 73-98.) In this test, groups of male mice are weighed and housed individually in wire mesh cages. The rectal temperature of each mouse is recorded and the test compound or vehicle is then administered. […] Mice are then placed in a cold room (36° F.) for 30 minutes, and then returned to room temperature for 30 minutes. At this time (60 minutes after Ro 4-1284 administration) the rectal temperature of each mouse is again recorded. […] The final temperatures of control groups of ten Ro 4-1284-treated mice from a number of experiments are combined to form an "historic control" of 100 mice. This control is updated periodically by replacement of the oldest data.

[2] = Metabolite identification in the urine of test animals
[3] = system: depression; neurodegeneration; conditions: prior art compound; cited from earlier work
[4] = Table I, pre-treatment time and route of test compound not given, read-out: Reserpine-Induced Ptosis ED50
[5] = Table I, two determinations listed separately where marked *, read-out: Ro 4-1284 Induced Hypothermia ED50
[6] = 1 h, 60 minute pre-treatment time, read-out: ED50 for prevention of reserpine-induced ptosis
[7] = 1 h, 60 minute pre-treatment time, i.p., read-out: ED50 for antagonism of Ro 4-1284-induced hypothermia

| SMILES | LD50 (LD50) | ED50 (reserpine-induced ptosis; [4]) | ED50 [1, 5] | ED50 [1, 7] | further results |
| --- | --- | --- | --- | --- | --- |
| Cn1c[n+](C)nc1-c1ccc(Br)cc1 [Rn 4-Br--] | 200 to 400 mg/kg | 0.23 mg/kg | 0.81 mg/kg | – | – |
| COc1c(F)cccc1-c1n[n+](C)cn1C [3-F-2-CH3 O--] | 100 to 200 mg/kg | 1.31 mg/kg | 2 mg/kg | – | – |
| Cn1c[n+](C)nc1-c1ccccc1F [Rn 2-F--] | 100 to 200 mg/kg | 0.28 mg/kg | 0.74 mg/kg | – | Ro 4-1284 Induced Hypothermia ED50 ([1]; Table I, two determinations listed separately where marked *, 20 mg/kg): 0.58 mg/kg |
| Cn1c[n+](C)nc1-c1ccc(Cl)cc1 [Rn 4-Cl--, 3-(4-chlorophenyl)-1,4-dimethyl-1,2,4-triazolium hydrosulfate] | 100 to 200 mg/kg | 0.09 mg/kg | 0.51 mg/kg | – | ED50 (reserpine-induced ptosis; [6]): 0.09 mg/kg |
| CC(Cc1ccccc1)NN (stereo not drawn) [catron, reference compound] | – | – | – | 0.7 mg/kg | – |
| CN(C)CCCN1c2ccccc2CCc2ccccc21 [imipramine, reference compound] | – | – | – | 1.8 mg/kg | ED50 (reserpine-induced ptosis; [6]): 4.89 mg/kg |
| Cn1c[n+](C)nc1-c1cccc(F)c1 [Rn 3-F--, 3-(3-Fluorophenyl)-1,4-dimethyl-1,2,4-triazolium hydrosulfate] | 200 to 400 mg/kg | 0.19 mg/kg | 0.34 mg/kg | 0.34 mg/kg | – |
| Cn1c[n+](C)nc1-c1ccc(I)cc1 [Rn 4-I--] | 100 to 200 mg/kg | 2.82 mg/kg | > 6.25 mg/kg | – | – |
| CNCCCN1c2ccccc2CCc2ccccc21 [desipramine, reference compound] | – | – | – | 0.1 mg/kg | – |
| Cn1c[n+](C)nc1-c1c(F)cccc1F [2,6-F2 --] | 100 to 200 mg/kg | 5.34 mg/kg | 0.58 mg/kg | – | – |
| COc1ccccc1-c1n[n+](C)cn1C [2-CH3 O--] | 50 to 100 mg/kg | > 12.5 mg/kg | > 3.12 mg/kg | – | – |
| Cn1c[n+](C)nc1-c1cccc(F)c1 [3-(3-fluorophenyl)-1,4-dimethyl-1,2,4-triazolium ion] | – | – | – | – | urinary metabolite of 5-(3-fluorophenyl)-2,4-dimethyl-3H-1,2,4-triazole-3-thione [2]: identified in the urine of test animals as a metabolite |
| Cn1nc(-c2cccc(F)c2)n(C)c1=S [5-(3-fluorophenyl)-2,4-dimethyl-3H-1,2,4-triazole-3-thione] | – | – | – | – | known antidepressant and neuroprotective activity [3]: antidepressant activity as well as activity in tests indicative of protection from neurodegeneration |
